Experimental data taken from patent publication US20150265670A1, “AGENT FOR PREVENTING OR IMPROVING DECLINE IN BRAIN FUNCTION” (KYOWA HAKKO BIO CO., LTD., priority 2012, published 2015).

Assays:
[1] = test system: bilateral common carotid arteries occlusion C57BL/6J mice; test: Y-maze test; assay type: in vivo; conditions: single agent, after 7 days administration; for spontaneous alternation behavior rate (Alternation), memory behavior: high dose 100 mg/kg oral; for spontaneous alternation behavior rate (Alternation): low dose 40 mg/kg oral, compared to distilled water group (Group 2)
Experimental: (§1) Experimental Example: 10-week-old male C57BL/6J mice (CLEA Japan, Inc. approximately 25 g of average body weight per mouse) were preliminarily acclimated for 1 week, and provided for experiments. Citrulline and glutathione were obtained from KYOWA HAKKO BIO CO., LTD.
(§2) C57BL/6J mice were divided into a sham-operation group (Group 1) and a bilateral common carotid arteries occlusion group, which was performed under halothane anesthesia for 20 minutes. One day after reperfusion, the bilateral common carotid arteries occlusion group was further divided into a distilled water-treated group (Group 2), a low-dose citrulline-treated group (40 mg/kg: Group 3), a low-dose glutathione-treated group (40 mg/kg: Group 4), a high-dose citrulline-treated group (100 mg/kg: Group 5), a high-dose glutathione-treated group (100 mg/kg: Group 6), and a combination treatment group of a low dose of citrulline and a low dose of glutathione (each 40 mg/kg: Group 7). Each sample was orally administered for 12 days. One week after starting administration, learning memory-improving effects were examined by a Y-maze test, a passive avoidance test, and a novel object recognition test. After evaluating learning memory functions, the hippocampus was removed and viability of hippocampal nerve cells was evaluated.
In the Y-maze test, a Y-maze apparatus with three arms (50×16×32 cm) was used. Mice were placed at any one arm of the Y-maze and were allowed to explore freely through the maze for 8 minutes. The sequence of arm entries was recorded. The number of entries into each arm was counted during the measurement time, which was defined as the total number of entries. Of them, the successive entry into the three different arms was examined, and this number was defined as the spontaneous alternation behavior number. The spontaneous alternation behavior number was divided by (the total number of arm entries minus two), and then multiplied by 100, which was defined as the spontaneous alternation behavior rate (Alternation) and used as an index for spontaneous alternation behavior.

[2] = test system: bilateral common carotid arteries occlusion C57BL/6J mice; test: Passive avoidance test; assay type: in vivo; conditions: single agent, after 7 days administration; for latency time spent in the light compartment, memory behavior: high dose 100 mg/kg oral; for latency time spent in the light compartment: low dose 40 mg/kg oral, compared to Group 2
Experimental: as §1, §2
The passive avoidance test was performed using a box consisting of dark (25×25×25 cm) and light compartments (14×10×25 cm) and being equipped with an electrical stimulation apparatus at the bottom of the dark compartment. During training, as soon as the mouse entered the dark compartment from the light compartment, the door was closed, and an electrical stimulation (0.3 mA, for 2 seconds) was delivered. Twenty four hours after training, the mouse was placed again in the light compartment, and the latency time spent in the light compartment was recorded with a maximum latency of 300 seconds.

[3] = test system: bilateral common carotid arteries occlusion C57BL/6J mice; test: Novel object recognition test; assay type: in vivo; conditions: single agent, after 7 days administration; for frequency of exploring the novel object, memory behavior: high dose 100 mg/kg oral; for frequency of exploring the novel object: low dose 40 mg/kg oral
Experimental: as §1, §2
The novel object recognition test was performed after mice were individually acclimated to the open field apparatus (35×25×35 cm) for 2 days. During training, mice were allowed to explore freely for 10 minutes in an apparatus where two identical objects were symmetrically placed. After 1 hour, one object was replaced by a novel object, and mice were allowed to explore freely for 5 minutes. Object exploration was defined as standing on the objects, touching the object with the nose, or sniffing the object within 1 cm from the object. A ratio of the frequency of exploring the familiar or novel object over the total exploration frequency was calculated, and used as an index for visual recognition memory.

[4] = test system: hippocampal nerve cells (CA1 pyramidal cell layer); test: Evaluation of viability of hippocampal nerve cells; assay type: in vivo, mice; conditions: single agent, 12 days administration
Experimental: as §1, §2
Twelve days after bilateral occlusion of the common carotid arteries, mice were anesthetized with pentobarbital sodium, and perfused with ice-cold phosphate buffer (PBS, pH 7.4) until the blood in the body was completely removed. Immediately, mice were perfused with a fixative solution containing 4% paraformaldehyde. The brain tissues were fixed at 4° C. for 24 hours, and coronal sections having a thickness of 50 μm were prepared. Serial sections containing the hippocampus were stained with propidium iodide (PI, 5 μmol/L) dissolved in PBS and observed under a fluorescent microscope. Surviving and non-surviving nerve cells in the CA1 pyramidal cell layer of the hippocampus were counted at 1.4 to 1.8 mm posterior to bregma, and cells with PI-positive nuclei and typical morphological characteristics were defined as […]. The cell viability was calculated from a ratio to the average number of surviving nerve cells in Group 1.

[5] = low dose 40 mg/kg oral, compared to Group 2

For NC(=O)NCCC[C@H](N)C(=O)O [citrulline], the “spontaneous alternation behavior rate (Alternation), memory behavior” value [1] was “remarkably improved effect of memory behavior”, the “spontaneous alternation behavior rate (Alternation)” value [1] was “cannot be improved” and the “latency time spent in the light compartment, memory behavior” value [2] was “remarkably improved effect of memory behavior”. For the same compound, the “latency time spent in the light compartment” value [2] was “cannot be improved”, the “frequency of exploring the novel object, memory behavior” value [3] was “remarkably improved effect of memory behavior” and the “frequency of exploring the novel object” value [3] was “cannot be increased”. The “viability of hippocampal nerve cells” value ([4]; high dose 100 mg/kg oral) was “nerve cell-protecting effect” and the “viability of hippocampal nerve cells” value [4, 5] was “cannot be improved”.
N[C@@H](CCC(=O)N[C@@H](CS)C(=O)NCC(=O)O)C(=O)O [glutathione] was tested, and the “spontaneous alternation behavior rate (Alternation), memory behavior” value [1] was “remarkably improved effect of memory behavior”, the “spontaneous alternation behavior rate (Alternation)” value [1] was “cannot be improved” and the “latency time spent in the light compartment, memory behavior” value [2] was “remarkably improved effect of memory behavior”. The “latency time spent in the light compartment” value [2] was “cannot be improved”, the “frequency of exploring the novel object, memory behavior” value [3] was “remarkably improved effect of memory behavior” and the “frequency of exploring the novel object” value [3] was “cannot be increased”. The “viability of hippocampal nerve cells” value ([4]; high dose 100 mg/kg oral) was “nerve cell-protecting effect” and the “viability of hippocampal nerve cells” value [4, 5] was “cannot be improved”.
